pIC50: −log10 of the molar value.
Experiments:
[1] = biological target: T1, Nitric oxide synthase 1 (Homo sapiens, UniProt P29475); test: Inhibition of human nNOS by hemoglobin capture assay
[2] = biological target: T1, Nitric oxide synthase 1; test: Inhibition of human nNOS by radioactivity assay
[3] = biological target: Nitric oxide synthase 1 (Rattus norvegicus, UniProt P29476); test: Inhibition of wild type rat nNOS by hemoglobin capture assay
[4] = biological target: Nitric oxide synthase 1 (Rattus norvegicus, UniProt P29476, L337H)
Nitric oxide synthase 1 (Rattus norvegicus, UniProt P29476, L337H), sequence (P29476 whole entry L337H): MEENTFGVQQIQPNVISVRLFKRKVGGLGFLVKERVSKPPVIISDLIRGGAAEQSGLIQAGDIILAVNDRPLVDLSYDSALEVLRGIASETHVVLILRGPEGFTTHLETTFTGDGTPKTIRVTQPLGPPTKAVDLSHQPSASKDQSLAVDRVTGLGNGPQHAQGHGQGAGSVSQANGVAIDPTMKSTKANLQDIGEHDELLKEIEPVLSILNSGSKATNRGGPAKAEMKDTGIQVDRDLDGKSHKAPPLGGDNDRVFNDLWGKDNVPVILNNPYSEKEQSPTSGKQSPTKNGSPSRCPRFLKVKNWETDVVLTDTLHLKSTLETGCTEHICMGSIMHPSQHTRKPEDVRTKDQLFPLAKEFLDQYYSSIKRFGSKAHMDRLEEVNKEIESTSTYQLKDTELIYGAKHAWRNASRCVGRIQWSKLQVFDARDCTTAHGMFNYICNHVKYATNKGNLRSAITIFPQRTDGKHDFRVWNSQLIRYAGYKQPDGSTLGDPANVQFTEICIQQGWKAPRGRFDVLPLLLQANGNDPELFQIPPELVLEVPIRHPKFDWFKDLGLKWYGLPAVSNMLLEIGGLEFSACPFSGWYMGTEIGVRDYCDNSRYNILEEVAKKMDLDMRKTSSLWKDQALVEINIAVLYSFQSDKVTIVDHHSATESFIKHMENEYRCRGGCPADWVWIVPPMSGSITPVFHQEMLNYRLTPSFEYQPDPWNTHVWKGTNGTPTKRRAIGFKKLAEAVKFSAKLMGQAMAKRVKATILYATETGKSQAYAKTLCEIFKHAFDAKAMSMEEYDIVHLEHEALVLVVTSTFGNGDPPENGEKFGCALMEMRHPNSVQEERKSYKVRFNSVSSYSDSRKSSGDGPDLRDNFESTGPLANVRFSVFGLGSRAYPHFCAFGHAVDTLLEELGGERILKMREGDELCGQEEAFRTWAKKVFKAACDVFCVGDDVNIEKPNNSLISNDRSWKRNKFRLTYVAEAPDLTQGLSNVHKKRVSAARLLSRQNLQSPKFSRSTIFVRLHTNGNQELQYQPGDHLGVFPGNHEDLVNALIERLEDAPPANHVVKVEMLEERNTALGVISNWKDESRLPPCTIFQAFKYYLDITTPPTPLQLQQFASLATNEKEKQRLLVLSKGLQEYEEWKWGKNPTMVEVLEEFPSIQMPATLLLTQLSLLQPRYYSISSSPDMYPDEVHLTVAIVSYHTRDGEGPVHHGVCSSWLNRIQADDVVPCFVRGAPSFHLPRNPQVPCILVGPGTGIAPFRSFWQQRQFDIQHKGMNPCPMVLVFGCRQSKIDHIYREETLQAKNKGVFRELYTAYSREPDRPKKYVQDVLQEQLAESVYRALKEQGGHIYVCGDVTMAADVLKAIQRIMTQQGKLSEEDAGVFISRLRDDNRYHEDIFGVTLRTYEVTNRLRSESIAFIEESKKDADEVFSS

[5] = Selectivity ratio of IC50 for wild type rat nNOS to IC50 for human nNOS by hemoglobin capture assay
[6] = species: Rattus norvegicus; test: Selectivity ratio of IC50 for wild type rat nNOS to IC50 for rat nNOS L337H mutant by hemoglobin capture assay

Nitric oxide synthase 1 (Rattus norvegicus, UniProt P29476), sequence (P29476 whole entry): as the sequence (P29476 whole entry L337H) above, with H337L counted along it
T1 sequence (P29475 whole entry): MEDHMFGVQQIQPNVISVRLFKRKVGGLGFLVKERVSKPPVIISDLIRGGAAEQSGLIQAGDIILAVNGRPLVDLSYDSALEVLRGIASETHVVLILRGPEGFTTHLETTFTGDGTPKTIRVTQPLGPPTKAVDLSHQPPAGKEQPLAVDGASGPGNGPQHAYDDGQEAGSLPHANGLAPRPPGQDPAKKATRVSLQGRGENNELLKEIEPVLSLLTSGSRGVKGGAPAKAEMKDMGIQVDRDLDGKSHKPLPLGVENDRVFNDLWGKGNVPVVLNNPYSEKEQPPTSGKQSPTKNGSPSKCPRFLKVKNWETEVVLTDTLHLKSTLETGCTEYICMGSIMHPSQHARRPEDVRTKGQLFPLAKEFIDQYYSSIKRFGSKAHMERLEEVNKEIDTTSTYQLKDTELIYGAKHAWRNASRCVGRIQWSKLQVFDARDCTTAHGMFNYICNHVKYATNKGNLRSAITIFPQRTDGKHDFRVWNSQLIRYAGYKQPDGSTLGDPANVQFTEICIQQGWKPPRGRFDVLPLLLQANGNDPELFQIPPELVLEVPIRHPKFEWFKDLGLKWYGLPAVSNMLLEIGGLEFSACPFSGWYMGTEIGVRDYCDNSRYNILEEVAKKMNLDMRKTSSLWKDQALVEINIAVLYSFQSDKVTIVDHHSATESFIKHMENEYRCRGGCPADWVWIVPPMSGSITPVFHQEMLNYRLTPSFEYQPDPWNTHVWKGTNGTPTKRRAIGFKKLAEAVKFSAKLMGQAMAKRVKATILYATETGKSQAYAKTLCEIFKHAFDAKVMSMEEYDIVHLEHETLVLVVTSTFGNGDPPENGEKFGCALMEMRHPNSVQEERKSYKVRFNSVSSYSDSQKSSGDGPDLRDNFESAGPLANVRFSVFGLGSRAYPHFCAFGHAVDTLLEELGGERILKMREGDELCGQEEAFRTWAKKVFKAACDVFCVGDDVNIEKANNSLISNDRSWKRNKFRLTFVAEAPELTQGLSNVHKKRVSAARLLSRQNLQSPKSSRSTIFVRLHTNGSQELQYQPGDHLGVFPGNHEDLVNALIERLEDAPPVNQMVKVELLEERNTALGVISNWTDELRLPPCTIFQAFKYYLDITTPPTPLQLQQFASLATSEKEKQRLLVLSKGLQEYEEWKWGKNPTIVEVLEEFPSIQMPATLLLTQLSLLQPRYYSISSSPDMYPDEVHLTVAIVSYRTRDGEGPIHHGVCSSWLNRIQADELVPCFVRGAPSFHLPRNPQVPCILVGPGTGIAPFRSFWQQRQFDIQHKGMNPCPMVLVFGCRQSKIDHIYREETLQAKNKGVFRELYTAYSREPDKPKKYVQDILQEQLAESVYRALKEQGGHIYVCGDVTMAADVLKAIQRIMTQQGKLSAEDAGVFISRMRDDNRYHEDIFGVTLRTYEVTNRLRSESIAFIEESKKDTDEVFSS

Compound | pIC50 [1] | pIC50 [2] | pIC50 [3] | pIC50 [4] | Ratio IC50 [5] | Ratio IC50 [6]
Cc1cc(N)nc(CC2CNCC2OCCNCCc2cccc(F)c2)c1 (racemic) | 6.22 | 6.15 | – | – | – | –
Cc1cc(N)nc(CC2CNCC2NC(=O)CNCCc2cccc(F)c2)c1 (racemic) | 5.52 | – | 6.15 | 5.40 | 4.3 | 5.7
Cc1cc(N)nc(CC2CNCC2NCCNCCc2ccc(Cl)cc2)c1 (racemic) | 5.38 | – | 5.96 | 5.30 | 3.8 | 4.6
Cc1cc(N)nc(CC2CNCC2NCCOCCc2cccc(F)c2)c1 (racemic) | 5.18 | – | 5.54 | 5.26 | 2.4 | 1.9
NCCNC1CNCC1Cc1cccc(N)n1 (racemic) | 4.82 | – | – | – | – | –
Cc1cc(C)nc(N)c1 | 7.00 | – | 7.00 | 7.00 | 1 | 1.1
Cc1cc(N)nc(CC2CNCC2NCCN)c1 (racemic) | 5.40 | – | 5.89 | 5.47 | 3.1 | 2.7
